Test results published in patent US9572799B2, “Pyrazolopyridine derivatives for use in the treatment of bladder cancer” (SANOFI, priority 2013, dated 2017).
Structures can show the parent of a compound that is named as a salt.

Legend:
[1] = system: TCC97-7 bladder cancer cells carrying the Ser249Cys mutation of FGF-R3; test: Reduction of intracellular ATP content of TCC97-7 cells in serum-supplemented medium (Cell Titer-Glo); format: cell-based; conditions: 72 h, TCC97-7 cells cultured in the presence of serum, after 3 days, read-out: Inhibition of the amount of intracellular ATP (%)
Description: Evaluation of the Capacity of FGF-R Antagonists to Reduce the ATP Content of TCC97-7 Bladder Cancer Cells Carrying the Ser249Cys Mutation of FGF-R3, Cultured in a Serum-Supplemented Medium
To do this, 3000 cells are seeded in 50 μl of complete medium (Ham-F/12, 1% FCS, 2 mM glutamine, non-essential amino acids, sodium pyruvate, 1% insulin/transferrin/selenium, hydrocortisone). 16 hours later, 50 μl of the various compounds are added at 2 and 20 μM after dilution in complete culture medium in order to obtain final concentrations of 1 and 10 μM. After 3 days, the ATP content of the cells is measured using the Cell Titer-Glo® Luminescent Cell Viability Assay kit (Promega, France) according to the supplier's recommendations. The percentage inhibition of the amount of intracellular ATP is calculated by considering the ATP content of the cells cultured in the absence of antagonist to be 0% inhibition. 100% inhibition would correspond to a well in which the ATP content is zero.
Thus, compounds 1 to 24 are capable of inhibiting the amount of intracellular ATP in TCC97-7 cells by more than 20% at the dose of 1 or 10 μM (Table No. 3).

[2] = system: bladder cancer tumour cells of TCC97-7 type carrying the Ser249Cys mutation of FGF receptor 3; test: Inhibition of serum-induced proliferation of TCC97-7 bladder cancer cells (cell-covered surface area, Incucyte); format: cell-based; conditions: 72 h, TCC97-7 cell line in the presence of serum, after 3 days
Description: Evaluation of the Capacity of the FGF-R Antagonists to Inhibit Serum-Induced Proliferation of Bladder Cancer Tumour Cells of TCC97-7 Type Carrying the Ser249Cys Mutation of FGF Receptor 3
To do this, 2000 cells are seeded in the morning in 50 μl of complete medium (Ham-F/12, 1% FCS, 2 mM glutamine, non-essential amino acids, sodium pyruvate, 1% insulin/transferrin/selenium, hydrocortisone). In the evening, 50 μl of the various compounds are added at 2 or 20 μM after dilution in complete culture medium in order to obtain final concentrations of 1 or 10 μM. After 3 days, cell proliferation is evaluated by measuring the cell-covered surface area of a well of a 96 well plate. This surface area is measured using an Incucyte apparatus (Essen BioScience). The percentage inhibition of the cell proliferation is calculated by considering the surface area occupied by the TCC97-7 cells cultured in the absence of FGF-R antagonists to be 0% inhibition. 100% inhibition would correspond to a well no longer containing cells.
Thus, compounds 1 to 24 are capable of inhibiting TCC97-7 cell proliferation by more than 20% at the dose of 1 or 10 μM. (Table No. 2).

`CN(C)c1ccc(-c2cc(C(F)(F)F)c3c(-c4ccccc4)n[nH]c3n2)cc1` [compound 19, Dimethyl-[4-(3-phenyl-4-trifluoromethyl-1H-pyrazolo[3,4-b]pyridin-6-yl)phenyl]amine] gave an inhibition at 1 µM [1] of 30% and an inhibition at 10 µM [1] of 63%.
With `FC(F)(F)c1cc(-c2ccc(N3CCOCC3)cc2)nc2[nH]nc(-c3ccccc3)c12` [compound 24, 6-(4-Morpholin-4-ylphenyl)-3-phenyl-4-trifluoromethyl-1H-pyrazolo[3,4-b]pyridine hydrochloride] the inhibition at 1 µM [1] was 6% and the inhibition at 10 µM [1] was 27%.
For `FC(F)c1cc(-c2cccc(N3CCCCC3)c2)nc2[nH]nc(-c3ccccc3)c12` [compound 7, 4-Difluoromethyl-3-phenyl-6-(3-piperidin-1-ylphenyl)-1H-pyrazolo[3,4-b]pyridine hydrochloride], the inhibition at 1 µM [2] was -50.3%, the inhibition at 10 µM [2] was 52.2% and the inhibition at 1 µM [1] was 20.4%. It also gave an inhibition at 10 µM [1] of 78%.
Work on `CN(C)CCn1nc(-c2ccccc2)c2c(C(F)F)cc(-c3ccc(N)c(C#N)c3)nc21` [compound 14, 2-Amino-5-[4-difluoromethyl-1-(2-dimethylaminoethyl)-3-phenyl-1H-pyrazolo[3,4-b]pyridin-6-yl]benzonitrile] yielded an inhibition at 1 µM [1] of 32% and an inhibition at 10 µM [1] of 77%.
Work on `O=C(c1cccc(-c2cc(C(F)F)c3c(-c4ccccc4)n[nH]c3n2)c1)N1CCCC1` [compound 6, [3-(4-Difluoromethyl-3-phenyl-1H-pyrazolo[3,4-b]pyridin-6-yl)phenyl]pyrrolidin-1-ylmethanone hydrochloride] yielded an inhibition at 1 µM [2] of 16.2%, an inhibition at 10 µM [2] of 83.9% and an inhibition at 1 µM [1] of 26.9%. It also gave an inhibition at 10 µM [1] of 90.5%.
Compound `CN(C)C(=O)c1cccc(-c2cc(C(F)(F)F)c3c(-c4ccccc4)nn(C)c3n2)c1` [compound 4, N,N-Dimethyl-3-(1-methyl-3-phenyl-4-trifluoromethyl-1H-pyrazolo[3,4-b]pyridin-6-yl)benzamide] has an inhibition at 1 µM [2] of 5%, an inhibition at 10 µM [2] of 64.4% and an inhibition at 1 µM [1] of 23.7%. The inhibition at 10 µM [1] was 49.6%.
Work on `N#Cc1cc(-c2cc(C(F)F)c3c(-c4cccnc4)n[nH]c3n2)ccc1N` [compound 11, 2-Amino-5-(4-difluoromethyl-3-pyridin-3-yl-1H-pyrazolo[3,4-b]pyridin-6-yl)benzonitrile] yielded an inhibition at 1 µM [2] of 50.4%, an inhibition at 10 µM [2] of 19.2% and a melting point of 296 °C. The inhibition at 1 µM [1] was 21.5% and the inhibition at 10 µM [1] was 25.5%.
Compound `CS(=O)(=O)Nc1cccc(-c2cc(C(F)(F)F)c3c(-c4ccccc4)n[nH]c3n2)c1` [compound 13, N-[3-(3-Phenyl-4-trifluoromethyl-1H-pyrazolo[3,4-b]pyridin-6-yl)phenyl]methanesulphonamide hydrochloride] has an inhibition at 1 µM [2] of 0%, an inhibition at 10 µM [2] of 57% and an inhibition at 1 µM [1] of 56%. For the same compound, the inhibition at 10 µM [1] was 63%.
`O=C(c1ccc(-c2cc(C(F)F)c3c(-c4ccccc4)n[nH]c3n2)cc1)N1CCCC1` [compound 5, [4-(4-Difluoromethyl-3-phenyl-1H-pyrazolo[3,4-b]pyridin-6-yl)phenyl]pyrrolidin-1-ylmethanone hydrochloride] gave an inhibition at 1 µM [2] of 45.7%, an inhibition at 10 µM [2] of 19.5% and an inhibition at 1 µM [1] of 37.1%. The inhibition at 10 µM [1] was 40.8%.
Work on `N#Cc1cc(-c2cc(C(F)F)c3c(-c4ccccc4)n[nH]c3n2)ccc1N` [compound 22, 2-Amino-5-(4-difluoromethyl-3-phenyl-1H-pyrazolo[3,4-b]pyridin-6-yl)benzonitrile hydrochloride] yielded an inhibition at 1 µM [1] of 27% and an inhibition at 10 µM [1] of 53%.
`N#Cc1cc(-c2cc(C(F)(F)F)c3c(-c4ccccc4)n[nH]c3n2)ccc1F` [compound 20, 2-Fluoro-5-(3-phenyl-4-trifluoromethyl-1H-pyrazolo[3,4-b]pyridin-6-yl)benzonitrile] gave an inhibition at 1 µM [1] of 11% and an inhibition at 10 µM [1] of 26%.
With `CN(C)CCn1nc(-c2ccccc2)c2c(C(F)(F)F)cc(-c3ccc(N)c(C#N)c3)nc21` [compound 8, 2-Amino-5-[1-(2-dimethylamino-ethyl)-3-phenyl-4-trifluoromethyl-1H-pyrazolo[3,4-b]pyridin-6-yl]benzonitrile] the inhibition at 1 µM [2] was 10.8%, the inhibition at 10 µM [2] was 95.2% and the inhibition at 1 µM [1] was 27.7%. It also gave an inhibition at 10 µM [1] of 97.8%.
`Cn1nc(-c2ccccc2)c2c(C(F)(F)F)cc(-c3ccc(C(=O)O)cc3)nc21` [compound 23, 4-(1-Methyl-3-phenyl-4-trifluoromethyl-1H-pyrazolo[3,4-b]pyridin-6-yl)benzoic acid] showed an inhibition at 1 µM [2] of 8%, an inhibition at 10 µM [2] of 33% and an inhibition at 1 µM [1] of 17%. The inhibition at 10 µM [1] was 40%.
`N#Cc1cc(-c2cc(C(F)F)c3c(-c4ccccc4)n[nH]c3n2)ccc1N` (as salt: hydrochloride) [compound 22, 2-Amino-5-(4-difluoromethyl-3-phenyl-1H-pyrazolo[3,4-b]pyridin-6-yl)benzonitrile hydrochloride] gave a melting point of 282 °C.
In the case of `COc1ncc(-c2cc(C(F)(F)F)c3c(-c4ccccc4)nn(C)c3n2)cc1C#N` [compound 9, 2-Methoxy-5-(1-methyl-3-phenyl-4-trifluoromethyl-1H-pyrazolo[3,4-b]pyridin-6-yl)nicotinonitrile], the inhibition at 1 µM [2] is reported as 27.6%, the inhibition at 10 µM [2] is reported as 79.7% and the melting point is reported as 250 °C. The inhibition at 1 µM [1] was 12.3% and the inhibition at 10 µM [1] was 69.3%.
Compound `CNC(=O)c1cccc(-c2cc(C(F)(F)F)c3c(-c4ccccc4)n[nH]c3n2)c1` [compound 17, N-Methyl-3-(3-phenyl-4-trifluoromethyl-1H-pyrazolo[3,4-b]pyridin-6-yl)benzamide hydrochloride] has an inhibition at 1 µM [1] of 13% and an inhibition at 10 µM [1] of 69%.
Compound `Cn1nc(-c2ccccc2)c2c(C(F)(F)F)cc(-c3cccc(NS(C)(=O)=O)c3)nc21` [compound 21, N-[3-(1-Methyl-3-phenyl-4-trifluoromethyl-1H-pyrazolo[3,4-b]pyridin-6-yl)phenyl]methanesulphonamide] has an inhibition at 1 µM [2] of -3%, an inhibition at 10 µM [2] of 61% and an inhibition at 1 µM [1] of -1%. The inhibition at 10 µM [1] was 25%.
Compound `COc1cccc(-c2n[nH]c3nc(-c4ccc(N)c(C#N)c4)cc(C(F)F)c23)c1` [compound 12, 2-Amino-5-[4-difluoromethyl-3-(3-methoxyphenyl)-1H-pyrazolo[3,4-b]pyridin-6-yl]benzonitrile] has an inhibition at 1 µM [2] of 12.1%, an inhibition at 10 µM [2] of 95.8% and a melting point of 233 °C. The inhibition at 1 µM [1] was 23.8% and the inhibition at 10 µM [1] was 75.8%.
With `Cn1nc(-c2ccccc2)c2c(C(F)(F)F)cc(-c3cccc(C(N)=O)c3)nc21` [compound 1, 3-(1-methyl-3-phenyl-4-trifluoromethyl-1H-pyrazolo[3,4-b]pyridin-6-yl)benzamide] the inhibition at 1 µM [2] was 8%, the inhibition at 10 µM [2] was 91.6% and the inhibition at 1 µM [1] was 10.9%. The inhibition at 10 µM [1] was 41.1%.
With `O=C(c1ccc(-c2cc(C(F)F)c3c(-c4ccccc4)n[nH]c3n2)cc1)N1CCCC1` (as salt: hydrochloride) [compound 5, [4-(4-Difluoromethyl-3-phenyl-1H-pyrazolo[3,4-b]pyridin-6-yl)phenyl]pyrrolidin-1-ylmethanone hydrochloride] the melting point was 248 °C.
`N#Cc1cc(-c2cc(C(F)(F)F)c3c(-c4ccccc4)nn(CCN4CCCCC4)c3n2)ccc1N` [compound 10, 2-Amino-5-[3-phenyl-1-(2-piperidin-1-ylethyl)-4-trifluoromethyl-1H-pyrazolo[3,4-b]pyridin-6-yl]benzonitrile] showed an inhibition at 1 µM [2] of 22.8%, an inhibition at 10 µM [2] of 85.9% and an inhibition at 1 µM [1] of 11%. For the same compound, the inhibition at 10 µM [1] was 94.4%.
In the case of `Nc1ccc(-c2cc(C(F)(F)F)c3c(-c4ccccc4)n[nH]c3n2)cc1` [compound 16, 4-(3-Phenyl-4-trifluoromethyl-1H-pyrazolo[3,4-b]pyridin-6-yl)phenylamine], the melting point is reported as 237 °C, the inhibition at 1 µM [1] is reported as 24% and the inhibition at 10 µM [1] is reported as 38%.
In the case of `CNC(=O)c1cc(-c2cc(C(F)(F)F)c3c(-c4ccccc4)nn(C)c3n2)ccc1F` [compound 2, 2-Fluoro-N-methyl-5-(1-methyl-3-phenyl-4-trifluoromethyl-1H-pyrazolo[3,4-b]pyridin-6-yl)benzamide], the inhibition at 1 µM [2] is reported as 4%, the inhibition at 10 µM [2] is reported as 53.2% and the inhibition at 1 µM [1] is reported as 17.9%. For the same compound, the inhibition at 10 µM [1] was 35.9%.
